Laboratory results: article PMC6982702, “Extensive Structure Modification on Luteolin-Cinnamic Acid Conjugates Leading to BACE1 Inhibitors with Optimal Pharmacological Properties” (Molecules, 2019)

Assays:
BACE1 = target: T1, BACE1 (Homo sapiens, UniProt P56817); test: In vitro BACE1 FRET enzyme assay; type: biochemical; conditions: BACE1 FRET assay; for inhibition at 10 µM: 10 μM compound, read-out: Inhibition Rate at 10 μM (%)
T1 construct: purchased PanVera Co. (Invitrogen, USA)
Method: The BACE1 FRET assay kit was purchased from the PanVera Co. (Invitrogen, USA). The assay was carried out according to the supplied manual with modifications. […] The fluorescence intensity was measured with a TECAN infinite 200 microplate reader for 60 min at 25 °C in the dark. […] The percent inhibition (%) was obtained by the following equation: Inhibition % = (1 −SS/SC) × 100%, where SC is the slope of fluorescence change of the control (enzyme, buffer, and substrate) during 60 min, and SS is the slope of fluorescence change of the tested samples (enzyme, sample solution, and substrate) during 60 min of measurement. IC50 values were calculated from the nonlinear curve fitting of percentage inhibition against inhibitor concentration using Prism 3.0 software (GraphPad Software, San Diego, CA, USA).

MTT cytotoxicity assay = type: cell-based; conditions: human, 24 h exposure
Method: It is crucial for the BACE1 inhibitors to exert their activities at sub-toxic concentration, and thus their cytotoxicity was assessed in HEK293 cells by 3-[4,5-dimethylthiazol-2-yl]-2,5-diphenyl-tetrazolium bromide (MTT) assays (Table 5). […] Unfortunately, there was no obvious relationship between the structures and their cytotoxicity.
The cytotoxicity was examined by using 3-[4,5-dimethylthiazol-2-yl]-2,5-diphenyl-tetrazolium bromide (MTT) assay. HEK293T cells were seeded with complete DMEM into 96-well plates ([…], 100 µL/well), incubated at 37 °C in a humidified atmosphere with 5% CO2 for 24 h. All the compounds were diluted with the phenol red-free DMEM at a specific concentration. After 24 h of exposure to different concentrations of compound, the supernatant was removed and then 20% (v/v) MTT (5 mg/mL) diluted with fresh culture medium was added into each well and incubated for 4 h. Cells were lysed with 100 μL dimethyl sulfoxide (DMSO) and shaken for 10 min at room temperature. The absorbance in each well was detected at a wavelength of 490 nm using a Universal Microplate Reader (ELX 800 lv, BIO-TEK Instruments, Inc., Winooski, VT, USA).

[1] = HEK293 cells (method text: HEK293T)

T1 sequence (P56817 46-501): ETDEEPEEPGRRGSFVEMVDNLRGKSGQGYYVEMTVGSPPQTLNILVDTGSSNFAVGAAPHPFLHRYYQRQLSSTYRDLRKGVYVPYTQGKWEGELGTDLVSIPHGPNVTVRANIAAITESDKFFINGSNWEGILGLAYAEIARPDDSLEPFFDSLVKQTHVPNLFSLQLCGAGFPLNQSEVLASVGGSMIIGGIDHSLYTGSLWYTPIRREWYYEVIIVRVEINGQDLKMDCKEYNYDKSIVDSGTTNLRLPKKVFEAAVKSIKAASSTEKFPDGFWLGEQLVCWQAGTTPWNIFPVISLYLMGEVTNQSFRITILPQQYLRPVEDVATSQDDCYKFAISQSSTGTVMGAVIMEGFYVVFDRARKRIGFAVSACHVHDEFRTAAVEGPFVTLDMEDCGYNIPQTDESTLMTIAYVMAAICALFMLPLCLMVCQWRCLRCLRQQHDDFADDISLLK

Row | inhibition at 10 µM (BACE1) | IC50 (BACE1) | Compound | IC50 at 24 h (MTT cytotoxicity assay; [1]) | IC50 at 24 h (MTT cytotoxicity assay; HEK293 cells (method text: HEK293T cells))
1 | 37 ± 8.6% | – | O=C(/C=C/c1ccc(O)cc1)OCCOCCOc1ccc(-c2cc(=O)c3c(O)cc(O)cc3o2)cc1 [Compound 4i] | – | –
2 | 17.1 ± 6% | – | CC(=O)Oc1ccc(/C=C/C(=O)OCCOc2ccc(-c3cc(=O)c4c(O)cc(O)cc4o3)cc2)cc1 [Compound 4g] | – | –
3 | 53.8 ± 4.4% | 6.58 ± 1.16 µM | CN(C)c1ccc(/C=C/C(=O)OCCOc2cc(O)c3c(=O)cc(-c4ccc(O)c(O)c4)oc3c2)cc1 [Compound 7h, (E)-2-((2-(3,4-dihydroxyphenyl)-5-hydroxy-4-oxo-4H-chromen-7-yl)oxy)ethyl 3-(4-(dimethylamino)phenyl)acrylate] | > 100 µM | –
4 | 68.1 ± 5.8% | 10.4 ± 1.02 µM | O=C(/C=C/c1ccc(O)cc1)OCCCCOc1cc(O)c2c(=O)cc(-c3ccc(O)c(O)c3)oc2c1 [Compound 5b, (E)-4-((2-(3,4-dihydroxyphenyl)-5-hydroxy-4-oxo-4H-chromen-7-yl)oxy)butyl 3-(4-hydroxyphenyl)acrylate] | – | –
5 | 51.9 ± 1.9% | – | O=C(OCCOc1cc(O)c2c(=O)cc(-c3ccc(O)c(O)c3)oc2c1)c1ccc(O)cc1 [Compound 7o, 2-((2-(3,4-dihydroxyphenyl)-5-hydroxy-4-oxo-4H-chromen-7-yl)oxy)ethyl 4-hydroxybenzoate] | 10.3 µM | –
6 | 56.7 ± 4.4% | 4.39 ± 0.34 µM | O=C(CCc1ccc(O)cc1)OCCOc1cc(O)c2c(=O)cc(-c3ccc(O)c(O)c3)oc2c1 [Compound 7p, 2-((2-(3,4-dihydroxyphenyl)-5-hydroxy-4-oxo-4H-chromen-7-yl)oxy)ethyl 3-(4-hydroxyphenyl)propanoate] | 90 µM | –
7 | 14.8 ± 7.35% | – | O=C(/C=C/c1ccc(O)cc1)Oc1cccc(-c2cc(=O)c3c(O)cc(O)cc3o2)c1 [Compound 4b] | – | –
8 | 39.6 ± 12.5% | – | O=C(/C=C/c1ccc(O)cc1)OCCOc1cccc(-c2cc(=O)c3c(O)cc(O)cc3o2)c1 [Compound 4d] | – | –
9 | 62.6 ± 6.4% | 20.6 ± 1.44 µM | O=C(/C=C/c1ccc(O)cc1)OCCCCCOc1cc(O)c2c(=O)cc(-c3ccc(O)c(O)c3)oc2c1 [Compound 5c, (E)-5-((2-(3,4-dihydroxyphenyl)-5-hydroxy-4-oxo-4H-chromen-7-yl)oxy)pentyl 3-(4-hydroxyphenyl)acrylate] | – | –
10 | 22.2 ± 7.1% | – | O=C(/C=C/C1CCCCC1)OCCOc1cc(O)c2c(=O)cc(-c3ccc(O)c(O)c3)oc2c1 [Compound 7m, (E)-2-((2-(3,4-dihydroxyphenyl)-5-hydroxy-4-oxo-4H-chromen-7-yl)oxy)ethyl 3-cyclohexylacrylate] | 14.4 µM | –
11 | – | – | O=C(/C=C/c1ccc(O)c(O)c1)OCCOc1cc(O)c2c(=O)cc(-c3ccc(O)c(O)c3)oc2c1 [Compound 7d] | – | 16.7 µM
12 | 59.2 ± 6.3% | 6.78 ± 0.83 µM | O=C(/C=C/c1ccc(O)cc1)OCCOc1c(-c2ccc(O)c(O)c2)oc2cc(O)cc(O)c2c1=O [Compound 4j, 2-((2-(3,4-dihydroxyphenyl)-5,7-dihydroxy-4-oxo-4H-chromen-3-yl)oxy)ethyl(E)-3-(4-hydroxyphenyl)acrylate] | – | –
13 | 31.8 ± 5.25% | – | CC(=O)Oc1ccc(/C=C/C(=O)OCCOc2cccc(-c3cc(=O)c4c(O)cc(O)cc4o3)c2)cc1 [Compound 4c] | – | –
14 | 21.3 ± 7.1% | – | O=C(/C=C/c1ccc(Cl)cc1)OCCOc1cc(O)c2c(=O)cc(-c3ccc(O)c(O)c3)oc2c1 [Compound 7f, (E)-2-((2-(3,4-dihydroxyphenyl)-5-hydroxy-4-oxo-4H-chromen-7-yl)oxy)ethyl 3-(4-chlorophenyl)acrylate] | 9.97 µM | –
15 | 57.5 ± 7.5% | 2.49 ± 0.32 µM | O=C(C=Cc1ccccc1)OCCOc1cc(O)c2c(=O)cc(-c3ccc(O)c(O)c3)oc2c1 [Compound 7a, 2-((2-(3,4-dihydroxyphenyl)-5-hydroxy-4-oxo-4H-chromen-7-yl)oxy)ethyl cinnamate] | > 100 µM | –
16 | 29.4 ± 5.5% | – | O=C(/C=C/c1ccc(O)cc1)Oc1ccc(-c2cc(=O)c3c(O)cc(O)cc3o2)cc1 [Compound 4f] | – | –
17 | 41.4 ± 4.4% | – | O=C(/C=C/c1ccc(O)cc1)Oc1cc(O)c2c(=O)cc(-c3ccc(O)c(O)c3)oc2c1 [Compound 5g] | 4.21 µM | –
18 | 23.9 ± 2.95% | – | CC(=O)Oc1ccc(/C=C/C(=O)Oc2cccc(-c3cc(=O)c4c(O)cc(O)cc4o3)c2)cc1 [Compound 4a] | – | –
19 | 37.6 ± 4.4% | – | CC(C)(C)c1ccc(/C=C/C(=O)OCCOc2cc(O)c3c(=O)cc(-c4ccc(O)c(O)c4)oc3c2)cc1 [Compound 7j, (E)-2-((2-(3,4-dihydroxyphenyl)-5-hydroxy-4-oxo-4H-chromen-7-yl)oxy)ethyl 3-(4-(tert-butyl)phenyl)acrylate] | 20.3 µM | –
20 | 81.4 ± 3.8% | 5.26 ± 0.72 µM | O=C(/C=C/c1ccc(O)cc1)OCCCOc1cc(O)c2c(=O)cc(-c3ccc(O)c(O)c3)oc2c1 [Compound 5a, (E)-3-((2-(3,4-dihydroxyphenyl)-5-hydroxy-4-oxo-4H-chromen-7-yl)oxy)propyl 3-(4-hydroxyphenyl)acrylate] | – | –
21 | 1.9 ± 10.3% | – | CC(=O)Oc1ccc(/C=C/C(=O)Oc2ccc(-c3cc(=O)c4c(O)cc(O)cc4o3)cc2)cc1 [Compound 4e] | – | –
22 | 58.2 ± 3.3% | 27.8 ± 1.34 µM | O=C(/C=C/c1ccc(O)cc1)OCCCCCCCCCCOc1cc(O)c2c(=O)cc(-c3ccc(O)c(O)c3)oc2c1 [Compound 5f, (E)-10-((2-(3,4-dihydroxyphenyl)-5-hydroxy-4-oxo-4H-chromen-7-yl)oxy)decyl 3-(4-hydroxyphenyl)acrylate] | – | –
23 | 60.6 ± 5.3% | 12.9 ± 1.14 µM | O=C(/C=C/c1ccc(O)cc1)OCCOc1ccc2oc(-c3ccc(O)c(O)c3)cc(=O)c2c1 [Compound 4k] | – | –
24 | 36 ± 4.2% | – | O=C(/C=C/c1ccc(O)cc1)OCCOc1ccc(-c2cc(=O)c3c(O)cc(O)cc3o2)cc1 [Compound 4h] | – | –
25 | 20.5 ± 4.4% | – | O=C(/C=C/c1ccc(O)cc1)OCCOc1cc(O)c2c(=O)cc(-c3ccccc3)oc2c1 [Compound 6] | 28.3 µM | –
26 | 42.4 ± 3.2% | – | O=C(/C=C/c1ccc(O)cc1)OCCCCCCOc1cc(O)c2c(=O)cc(-c3ccc(O)c(O)c3)oc2c1 [Compound 5d, (E)-6-((2-(3,4-dihydroxyphenyl)-5-hydroxy-4-oxo-4H-chromen-7-yl)oxy)hexyl 3-(4-hydroxyphenyl)acrylate] | – | –
27 | 73.9 ± 7.1% | 0.96 ± 1.55 µM | O=C(/C=C/c1ccc([N+](=O)[O-])cc1)OCCOc1cc(O)c2c(=O)cc(-c3ccc(O)c(O)c3)oc2c1 [Compound 7g, (E)-2-((2-(3,4-dihydroxyphenyl)-5-hydroxy-4-oxo-4H-chromen-7-yl)oxy)ethyl 3-(4-nitrophenyl)acrylate] | 21.8 µM | –
28 | 36.1 ± 2.6% | – | O=C(/C=C/c1ccc(O)cc1)OCCCCCCCCOc1cc(O)c2c(=O)cc(-c3ccc(O)c(O)c3)oc2c1 [Compound 5e, (E)-8-((2-(3,4-dihydroxyphenyl)-5-hydroxy-4-oxo-4H-chromen-7-yl)oxy)octyl 3-(4-hydroxyphenyl)acrylate] | – | –
29 | 28.5 ± 7.1% | – | O=C(/C=C/c1ccc(F)cc1)OCCOc1cc(O)c2c(=O)cc(-c3ccc(O)c(O)c3)oc2c1 [Compound 7e, (E)-2-((2-(3,4-dihydroxyphenyl)-5-hydroxy-4-oxo-4H-chromen-7-yl)oxy)ethyl 3-(4-fluorophenyl)acrylate] | 16.8 µM | –
30 | 59.5 ± 7.1% | 0.37 ± 0.25 µM | O=C(/C=C/c1ccoc1)OCCOc1cc(O)c2c(=O)cc(-c3ccc(O)c(O)c3)oc2c1 [Compound 7l, (E)-2-((2-(3,4-dihydroxyphenyl)-5-hydroxy-4-oxo-4H-chromen-7-yl)oxy)ethyl 3-(furan-3-yl)acrylate] | 9.51 µM | –

Row | Compound | inhibition at 10 µM (BACE1) | IC50 (BACE1) | IC50 at 24 h (MTT cytotoxicity assay; [1]) | IC50 at 24 h (MTT cytotoxicity assay; HEK293 cells (method text: HEK293T cells))
31 | CC(=O)Oc1ccc(/C=C/C(=O)OCCOc2cc(O)c3c(=O)cc(-c4ccc(O)c(O)c4)oc3c2)cc1 [Compound 7q, (E)-2-((2-(3,4-dihydroxyphenyl)-5-hydroxy-4-oxo-4H-chromen-7-yl)oxy)ethyl 3-(4-acetoxyphenyl)acrylate] | 25.7 ± 4.6% | – | > 100 µM | –
